Results on nine compounds are retold here after US5075335A, “Guanidinobenzoic ester derivative” (Eisai Co., Ltd., priority 1985, dated 1991).

The structures appear in SMILES notation.

Holding throughout (type): biochemical
Experiment [1] deals with trypsin. Briefly: Trypsin inhibition in vitro (hydrolysis of benzoyl-D,L-arginine-p-nitroanilide hydrochloride). As to conditions: 0.5 μg/ml of trypsin, 25° C, read-out: 50% Inhibitory concentration (IC50) Trypsin. On the procedure: (§1) The effects of typical compounds of the present invention in inhibiting trypsin, plasmin and thrombin in vitro were examined. The trypsin-inhibiting effect was represented in terms of a molar concentration of the compound which inhibits the activity of 0.5 μg/ml of trypsin to hydrolyze benzoyl-D,L-arginine-p-nitroanilide hydrochloride by 50% at 25° C. In the determination of the plasmin- and thrombin-inhibiting effects, 50% inhibitory concentrations were determined by using H-D-Val-Leu-L-Lys-p-nitroanilide dihydrochloride and H-D-Phe-L-pipecolyl-L-Arg-p-nitroanilide dihydrochloride, respectively, as the substrate.

The target in experiment [2] is plasmin (Homo sapiens, UniProt P00747). Briefly: Plasmin inhibition in vitro (substrate H-D-Val-Leu-L-Lys-p-nitroanilide dihydrochloride). Conditions: read-out: 50% Inhibitory concentration (IC50) Plasmin. As for the experimental part:
as §1

Experiment [3] deals with thrombin (Homo sapiens, UniProt P00734). Put plainly: Thrombin inhibition in vitro (substrate H-D-Phe-L-pipecolyl-L-Arg-p-nitroanilide dihydrochloride). As to conditions: read-out: 50% Inhibitory concentration (IC50) Thrombin. On the procedure:
as §1

Sequence of plasmin (P00747 581-810 limits assumed, species assumed): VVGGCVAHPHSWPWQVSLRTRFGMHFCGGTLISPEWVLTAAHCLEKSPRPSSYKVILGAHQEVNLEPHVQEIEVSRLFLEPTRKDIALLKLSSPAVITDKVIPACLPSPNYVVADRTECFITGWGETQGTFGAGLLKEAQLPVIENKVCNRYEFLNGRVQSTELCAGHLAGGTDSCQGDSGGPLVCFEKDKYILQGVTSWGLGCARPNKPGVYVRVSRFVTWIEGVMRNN
Sequence of plasmin (P00747 97-580 partner limits assumed, species assumed): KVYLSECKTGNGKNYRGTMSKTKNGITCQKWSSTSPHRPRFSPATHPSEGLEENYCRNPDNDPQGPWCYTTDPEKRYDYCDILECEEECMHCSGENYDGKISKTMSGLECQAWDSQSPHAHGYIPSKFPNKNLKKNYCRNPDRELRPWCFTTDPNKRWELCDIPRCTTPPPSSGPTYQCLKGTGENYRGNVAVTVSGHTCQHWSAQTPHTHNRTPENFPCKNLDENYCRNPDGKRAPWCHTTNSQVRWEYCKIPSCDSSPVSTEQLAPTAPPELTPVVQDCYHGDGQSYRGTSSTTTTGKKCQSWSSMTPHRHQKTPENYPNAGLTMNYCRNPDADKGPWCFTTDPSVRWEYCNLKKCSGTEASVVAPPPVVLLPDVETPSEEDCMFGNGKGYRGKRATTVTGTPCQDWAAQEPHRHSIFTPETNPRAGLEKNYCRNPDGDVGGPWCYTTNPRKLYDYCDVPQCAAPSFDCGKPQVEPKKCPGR

For `N=C(N)Nc1ccc(C(=O)Oc2ccc(SCCO)cc2)cc1` [A, 4-(2-hydroxyethylthio)phenyl 4-guanidinobenzoate methanesulfonate], the IC50 turned out to be 43 nM in experiment [1], 1300 nM in experiment [2] and 250 nM in experiment [3].
On the same counts, the results for `N=C(N)Nc1ccc(C(=O)Oc2ccc(SCCCCCN3C(=O)CCC3=O)cc2)cc1` [F, 4-(5-succinimidopentylthio)phenyl 4-guanidinobenzoate methanesulfonate] are 34 nM, 640 nM and 270 nM.
Taken in the same sequence, the figures for `N=C(N)Nc1ccc(C(=O)Oc2ccc(SCCN3C(=O)CCC3=O)cc2)cc1` [B, 4-(2-succinimidoethylthio)phenyl 4-guanidinobenzoate methanesulfonate] were 47 nM, 950 nM and 530 nM.
On to `N=C(N)Nc1ccc(C(=O)Oc2ccc(SCCCN3C(=O)CCC3=O)cc2)cc1` [D, 4-(3-succinimidopropylthio)phenyl 4-guanidinobenzoate methanesulfonate], for which the IC50 came to 59 nM in experiment [1], 1300 nM in experiment [2] and 420 nM in experiment [3].
With `N=C(N)Nc1ccc(C(=O)Oc2ccc(SCCN3C(=O)c4ccccc4C3=O)cc2)cc1` [H, 4-(2-phthalimidoethylthio)phenyl 4-guanidinobenzoate methanesulfonate], the IC50 in experiment [1] came out at 30 nM; in experiment [2], 920 nM; in experiment [3] it was 110 nM.
On the same counts, the results for `N=C(N)Nc1ccc(C(=O)Oc2ccc(SCCCCN3C(=O)CCC3=O)cc2)cc1` [E, 4-(4-succinimidobutylthio)phenyl 4-guanidinobenzoate methanesulfonate] are 22 nM, 2300 nM and 570 nM.
As for `CC1(C)OC(=O)N(CCSc2ccc(OC(=O)c3ccc(NC(=N)N)cc3)cc2)C1=O` [I, 4-[2-(5,5-dimethyl-2,4-dioxooxazolidin-3-yl)ethylthio]phenyl 4-guanidinobenzoate methanesulfonate], the IC50 in experiment [1] amounted to 55 nM; in experiment [2] it was 830 nM; in experiment [3] it was 320 nM.
Taken in the same sequence, the figures for `N=C(N)Nc1ccc(C(=O)Oc2ccc(SCCN3C(=O)[C@H]4CCCC[C@H]4C3=O)cc2)cc1` [G, 4-[2-(cis-1,2-cyclohexanedicarboxyimido)-ethylthio]phenyl 4-guanidinobenzoate methanesulfonate] were 62 nM, 1000 nM and 160 nM.
On the same counts, the results for `CCOCCSc1ccc(OC(=O)c2ccc(NC(=N)N)cc2)cc1` [C, 4-(2-ethoxyethylthio)phenyl 4-guanidinobenzoate methanesulfonate] are 45 nM, 2200 nM and 350 nM.
